According to patent publication EP0116444A2, “Improvements in or relating to benzazepine derivatives” (ELI LILLY AND COMPANY, priority 1983, dated 1984):
Structures can show the parent of a compound that is named as a salt. Where two headings read alike, the source gives them in different places.

Test system: spontaneously hypertensive rats
Experiment: Determination of antihypertensive activity (blood pressure and heart rate) in anesthetized spontaneously hypertensive rats
Format: in vivo
Conditions: 10 mg./kg. i.p. in aqueous solution, anesthetized spontaneously hypertensive male rats, average of two or more experiments; for change in vivo at 10 mg/kg: Rattus norvegicus, ip
Experimental: Spontaneously hypertensive male rats were anesthetized with methoxyflurane and α-chloralose (120 mg./kg., i.v.). An aqueous solution of the compound of formula I to be tested was administered i.p. to the animal following a 15-20 minute equilibrium period. Systemic arterial blood pressure was measured from the right carotid artery via a Statham P23 ID pressure transducer and recorded on a Model R411 Beckman Dynograph recorder. Heart rate was recorded with a Beckman 9857B cardiotachometer triggered by the pulse pressure. Mean arterial pressure was calculated as the diastolic pressure plus one third of the pulse pressure. Antihypertensive responses were measured at the maximal reduction in blood pressure occurring within 30 minutes after drug administration as compared to the baseline measurements taken prior to administration of the compound. The effect on heart rate was determined at the same time the maximum reduction in blood pressure was seen and was also compared with the baseline heart rate prior to compound administration. The results in Table I are reported as the maximal reduction in blood pressure and the corresponding effect on heart rate for certain compounds of formula I. The results are the average of two or more experiments.

[1] = heart rate at the time of maximum reduction in blood pressure vs pre-treatment baseline, minus = decrease, read-out: Effect on heart rate
[2] = maximal reduction in mean arterial blood pressure within 30 minutes of compound administration vs pre-treatment baseline, minus = reduction, read-out: Effect on blood pressure
[3] = heart rate at the time of maximum reduction in blood pressure vs pre-treatment baseline, minus = decrease
[4] = maximal reduction in mean arterial blood pressure within 30 minutes of compound administration vs pre-treatment baseline, minus = reduction

NC1=NC=Cc2cc3c(cc2C1)OCO3 [Example 9, 2-Amino-7,8-(methylenedioxy)-lH-3-benzazepine hydrochloride]
change in vivo at 10 mg/kg [1]: -11% | change in vivo at 10 mg/kg [2]: -19%

NC1=NC=Cc2cc3ccccc3cc2C1 [Example 3, 2-Amino-lH-naphth[2,3-d]azepine]
change in vivo at 10 mg/kg [1]: -20% | change in vivo at 10 mg/kg [2]: -31%

CNC1=NC=Cc2ccccc2C1 [Example 16, 2-Methylamino-1H-3-benzazepine]
change in vivo at 10 mg/kg [1]: -9% | change in vivo at 10 mg/kg [2]: -8%

NC1=NC=Cc2ccc3ccccc3c2C1 [Example 30, 2-Amino-1H-naphth[1,2-d]azepine hydrochloride]
change in vivo at 10 mg/kg [1]: -6% | change in vivo at 10 mg/kg [2]: -37%

C=CCNC1=NC=Cc2ccccc2C1 [Example 20, 2-Allylamino-lE-3-benzazepine]
change in vivo at 10 mg/kg [1]: -15% | change in vivo at 10 mg/kg [2]: -20%

CCOc1cc2c(cc1OC)CC(NC1CC1)=NC=C2 [Example 25, 2-Cyclopropylamino-7-ethoxy-8-methoxy-lH-3-benzazepine hydrochloride]
change in vivo at 10 mg/kg [1]: -6% | change in vivo at 10 mg/kg [2]: -9%

COc1cc2c(cc1OC)CC(NC1CC1)=NC=C2.Cl [Example 12, 2-Cyclopropylamino-7,8-dimethoxy-lH-3-benzazepine hydrochloride]
Effect on heart rate [3]: -8.0% | Effect on blood pressure [4]: -25.0%

NC1=NC=Cc2cc3c(cc2C1)CCC3 [Example 31, 2-Amino-1,7,8,9-tetrahydroindeno[5,6-d]-azepine hydrochloride]
change in vivo at 10 mg/kg [1]: -16% | change in vivo at 10 mg/kg [2]: -40%

COc1cc2c(cc1OC)C(C)C(N)=NC=C2 (stereo not drawn) [Example 13, 1-Methyl-2-amino-7,8-dimethoxy-1H-3-benzazepine hydrochloride]
change in vivo at 10 mg/kg [1]: -2% | change in vivo at 10 mg/kg [2]: -22%

Cc1cc2c(cc1C)CC(N)=NC=C2 [Example 2, 2-Amino-7,8-dimethyl-lH-3-benzazepine hydrochloride]
change in vivo at 10 mg/kg [1]: -21.7% | change in vivo at 10 mg/kg [2]: -46.7%

COc1cc(C)c(OC)c2c1CC(N)=NC=C2 [Example 33, 2-Amino-7-methyl-6,9-dimethoxy-lH-3-benzazepine hydrochloride]
change in vivo at 10 mg/kg [1]: -43% | change in vivo at 10 mg/kg [2]: -47%

COc1cc2c(cc1C)CC(N)=NC=C2 [Example 8, 2-Amino-7-methoxy-8-methyl-1H-3-benzazepine hydrochloride]
change in vivo at 10 mg/kg [1]: -31% | change in vivo at 10 mg/kg [2]: -54%

C1=Cc2ccccc2CC(NC2CC2)=N1 [Example 19, 2-Cyclopropylamino-lH-3-benzazepine]
change in vivo at 10 mg/kg [1]: -8% | change in vivo at 10 mg/kg [2]: -20%

NC1=NC=Cc2ccc3c(c2C1)CCCC3 [Example 35, 2-amino-8,9,10,11-tetra-hydro-lH-naphth[1,2-d]azepine hydrochloride]
change in vivo at 10 mg/kg [1]: -12% | change in vivo at 10 mg/kg [2]: -33%

CC(C)NC1=NC=Cc2ccccc2C1 [Example 21, 2-Isopropylamino-lH-3-benzazepine]
change in vivo at 10 mg/kg [1]: -6% | change in vivo at 10 mg/kg [2]: -16%

CNC1=NC=Cc2cc(OC)c(OC)cc2C1 [Example 11, 2-Methylamino-7,8-dimethoxy-lH-3-benzazepine]
change in vivo at 10 mg/kg [1]: -7% | change in vivo at 10 mg/kg [2]: -36%

CCc1cc2c(cc1CC)CC(N)=NC=C2 [Example 1, 2-Amino-7,8-diethyl-1H-3-benzazepine hydrochloride]
change in vivo at 10 mg/kg [2]: -24%

COc1cc2c(cc1O)C=CN=C(N)C2 [Example 28, 2-Amino-7-hydroxy-8-methoxy-1H-3-benzazepine hydrochloride]
change in vivo at 10 mg/kg [1]: 0% | change in vivo at 10 mg/kg [2]: -11%

CCNC1=NC=Cc2cc(OC)c(OC)cc2C1 [Example 22, 2-Ethylamino-7,8-dimethoxy-lH-3-benzazepine]
change in vivo at 10 mg/kg [1]: 2% | change in vivo at 10 mg/kg [2]: -13%

NC1=NC=Cc2ccc([N+](=O)[O-])cc2C1 [Example 10, 2-Amino-8-nitro-lH-3-benzazepine]
change in vivo at 10 mg/kg [1]: -22% | change in vivo at 10 mg/kg [2]: -55%

Cc1ccc(C)c2c1C=CN=C(N)C2 [Example 26, 2-Amino-6,9-dimethyl-lH-3-benzazepine hydrochloride]
change in vivo at 10 mg/kg [2]: -44%

CCOc1cc2c(cc1OCC)CC(N)=NC=C2 [Example 14, 2-Amino-7,8-diethoxy-lH-3-benzazepine hydrochloride]
change in vivo at 10 mg/kg [1]: -8% | change in vivo at 10 mg/kg [2]: -18%

COc1ccc(OC)c2c1C=CN=C(N)C2 [Example 32, 2-Amino-6,9-dimethoxy-lH-3-benzazepine hydrochloride]
change in vivo at 10 mg/kg [1]: -13% | change in vivo at 10 mg/kg [2]: -32%

COc1ccc2c(c1)CC(N)=NC=C2 [Example 4, 2-Amino-8-methoxy-1H-3-benzazepine hydrochloride]
change in vivo at 10 mg/kg [1]: -23.5% | change in vivo at 10 mg/kg [2]: -29.5%

COc1cc2c(cc1O)CC(N)=NC=C2 [Example 27, 2-Amino-7-methoxy-8-hydroxy-lE-3-benzazepine hydrochloride]
change in vivo at 10 mg/kg [1]: -12% | change in vivo at 10 mg/kg [2]: -29%

C=CCNC1=NC=Cc2cc(OC)c(OC)cc2C1 [Example 23, 2-Allylamino-7,8-dimethoxy-lH-3-benzazepine]
change in vivo at 10 mg/kg [1]: -5% | change in vivo at 10 mg/kg [2]: -15%

2-Amino-7,8-dimethoxy-lH-3-benzazepine hydrochloride [Example 6]
Effect on heart rate [3]: -15.0% | Effect on blood pressure [4]: -56.0%

CC(C)CNC1=NC=Cc2ccccc2C1 [Example 18, 2-Isobutylamino-lE-3-benzazepine]
change in vivo at 10 mg/kg [1]: -7% | change in vivo at 10 mg/kg [2]: -17%

COc1cc2c(cc1OC)CC(NC(C)C)=NC=C2 [Example 15, 2-Isopropylamino-7,8-dimethoxy-lH-3-benzazepine hydrochloride]
change in vivo at 10 mg/kg [1]: -3% | change in vivo at 10 mg/kg [2]: -10%

CCC(C)NC1=NC=Cc2ccccc2C1 (stereo not drawn) [Example 17, 2-Sec-butylamino-lH-3-benzazepine]
change in vivo at 10 mg/kg [1]: -13% | change in vivo at 10 mg/kg [2]: -22%

CCOc1cc2c(cc1OC)C=CN=C(N)C2 [Example 37, 2-Amino-8-ethoxy-7-methoxy-lH-3-benzazepine hydrochloride]
change in vivo at 10 mg/kg [1]: -23% | change in vivo at 10 mg/kg [2]: -48%

CCOc1cc2c(cc1OC)CC(N)=NC=C2 [Example 7, 2-Amino-7-ethoxy-8-methoxy-lH-3-benzazepine hydrochloride]
change in vivo at 10 mg/kg [1]: -3% | change in vivo at 10 mg/kg [2]: -36%

Cc1ccc2c(c1)CC(N)=NC=C2 [Example 24, 2-Amino-8-methyl-lH-3-benzazepine]
change in vivo at 10 mg/kg [1]: -22% | change in vivo at 10 mg/kg [2]: -35%

2-Amino-7,8-dimethoxy-lH-3-benzazepine [Example 5]
Effect on heart rate [3]: -21.0% | Effect on blood pressure [4]: -43.0%

C#CCNC1=NC=Cc2cc(OC)c(OC)cc2C1 [Example 29, 2-Propargylamino-7,8-dimethoxy-lH-3-benzazepine hydrochloride]
change in vivo at 10 mg/kg [1]: -11% | change in vivo at 10 mg/kg [2]: -29%

COc1cc2c(cc1F)CC(N)=NC=C2 [Example 36, 2-Amino-8-fluoro-7-methoxy-1H-3-benzazepine hydrochloride]
change in vivo at 10 mg/kg [1]: -8% | change in vivo at 10 mg/kg [2]: -31%

NC1=NC=Cc2cc3c(cc2C1)CCCC3 [Example 34, 2-Amino-7,8,9,10-tetrahydro-1H-naphth[2,3-d]-azepine hydrochloride]
change in vivo at 10 mg/kg [1]: -15% | change in vivo at 10 mg/kg [2]: -30%
